Source: the kinase profiling compilation of Christmann-Franck et al. (2016)
Values belong to the compound of their own block, whether it stands above or below them.

Key:
Experiment in all cases: KINOMEscan competition binding
Settings in all cases: compound 10.0 µM
[1] = target: FLT4 (human) (UniProt P35916)
[2] = test system: FGFR3 (human), P22607 [G697C]
[3] = target: BLK (human) (UniProt P51451)
[4] = target: LATS2 (human) (UniProt Q9NRM7)
[5] = target: BMX (human) (UniProt P51813)
[6] = target: CAMKK2 (human) (UniProt Q96RR4)
[7] = target: EPHA2 (human) (UniProt P29317)
[8] = target: STK36 (human) (UniProt Q9NRP7)
[9] = target: PDGFRA (human) (UniProt P16234)
[10] = target: ULK3 (human) (UniProt Q6PHR2)
[11] = target: FLT1 (human) (UniProt P17948)
[12] = test system: KIT (human), P10721 [V559D/V654A]
[13] = target: FGFR2 (human) (UniProt P21802)
[14] = test system: EGFR (human), P00533 [P753S; 747-752 del]
[15] = target: MUSK (human) (UniProt O15146)
[16] = target: IKBKB (human) (UniProt O14920)
[17] = target: CDK11B (human) (UniProt P21127)
[18] = test system: FLT3 (human), P36888 [K663Q]
[19] = target: MAP4K4 (human) (UniProt O95819)
[20] = test system: RET (human), P07949 [V804M]
[21] = target: MAPK15 (human) (UniProt Q8TD08)
[22] = target: PDPK1 (human) (UniProt O15530)
[23] = target: EPHA1 (human) (UniProt P21709)
[24] = target: TESK1 (human) (UniProt Q15569)
[25] = target: MAP3K5 (human) (UniProt Q99683)
[26] = target: PIM1 (human) (UniProt P11309)
[27] = target: PIK3C2B (human) (UniProt O00750)
[28] = target: NEK6 (human) (UniProt Q9HC98)
[29] = target: CLK2 (human) (UniProt P49760)
[30] = target: MAP3K11 (human) (UniProt Q16584)
[31] = target: STK3 (human) (UniProt Q13188)
[32] = target: PRKD2 (human) (UniProt Q9BZL6)
[33] = target: NUAK1 (human) (UniProt O60285)
[34] = target: PRKACA (human) (UniProt P17612)
[35] = target: STK24 (human) (UniProt Q9Y6E0)
[36] = target: MAP2K1 (human) (UniProt Q02750)
[37] = target: GSK3B (human) (UniProt P49841)
[38] = target: PKN2 (human) (UniProt Q16513)
[39] = target: AURKA (human) (UniProt O14965)
[40] = target: RPS6KA2 KD2 (human) (UniProt Q15349)
[41] = target: PAK1 (human) (UniProt Q13153)
[42] = target: IRAK3 (human) (UniProt Q9Y616)

Sequence of STK24 (human) (Q9Y6E0 whole entry, looked up): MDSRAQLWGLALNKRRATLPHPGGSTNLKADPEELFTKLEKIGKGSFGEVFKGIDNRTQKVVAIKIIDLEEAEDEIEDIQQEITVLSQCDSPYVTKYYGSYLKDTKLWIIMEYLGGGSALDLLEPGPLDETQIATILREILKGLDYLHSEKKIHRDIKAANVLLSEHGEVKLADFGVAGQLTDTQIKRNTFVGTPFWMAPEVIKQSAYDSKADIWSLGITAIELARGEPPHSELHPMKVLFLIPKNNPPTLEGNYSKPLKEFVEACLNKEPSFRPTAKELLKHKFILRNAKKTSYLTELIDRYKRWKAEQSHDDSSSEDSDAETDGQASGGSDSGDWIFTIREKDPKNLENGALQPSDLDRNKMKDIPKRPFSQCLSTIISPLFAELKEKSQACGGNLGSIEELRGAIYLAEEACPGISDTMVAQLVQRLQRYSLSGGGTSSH
Sequence of ULK3 (human) (Q6PHR2 whole entry, looked up): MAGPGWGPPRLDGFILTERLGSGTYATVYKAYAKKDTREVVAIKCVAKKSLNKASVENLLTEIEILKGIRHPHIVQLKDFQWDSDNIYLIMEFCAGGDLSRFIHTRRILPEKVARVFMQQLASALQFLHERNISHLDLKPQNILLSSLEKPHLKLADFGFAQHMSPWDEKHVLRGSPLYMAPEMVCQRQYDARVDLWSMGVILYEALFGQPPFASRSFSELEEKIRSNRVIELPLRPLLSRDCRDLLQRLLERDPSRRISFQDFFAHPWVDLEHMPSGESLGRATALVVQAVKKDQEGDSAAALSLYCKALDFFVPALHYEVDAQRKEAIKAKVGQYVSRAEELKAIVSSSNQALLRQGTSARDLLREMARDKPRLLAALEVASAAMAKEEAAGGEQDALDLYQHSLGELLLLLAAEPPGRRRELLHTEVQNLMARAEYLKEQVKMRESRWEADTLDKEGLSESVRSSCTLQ
Sequence of STK36 (human) (Q9NRP7 whole entry, looked up): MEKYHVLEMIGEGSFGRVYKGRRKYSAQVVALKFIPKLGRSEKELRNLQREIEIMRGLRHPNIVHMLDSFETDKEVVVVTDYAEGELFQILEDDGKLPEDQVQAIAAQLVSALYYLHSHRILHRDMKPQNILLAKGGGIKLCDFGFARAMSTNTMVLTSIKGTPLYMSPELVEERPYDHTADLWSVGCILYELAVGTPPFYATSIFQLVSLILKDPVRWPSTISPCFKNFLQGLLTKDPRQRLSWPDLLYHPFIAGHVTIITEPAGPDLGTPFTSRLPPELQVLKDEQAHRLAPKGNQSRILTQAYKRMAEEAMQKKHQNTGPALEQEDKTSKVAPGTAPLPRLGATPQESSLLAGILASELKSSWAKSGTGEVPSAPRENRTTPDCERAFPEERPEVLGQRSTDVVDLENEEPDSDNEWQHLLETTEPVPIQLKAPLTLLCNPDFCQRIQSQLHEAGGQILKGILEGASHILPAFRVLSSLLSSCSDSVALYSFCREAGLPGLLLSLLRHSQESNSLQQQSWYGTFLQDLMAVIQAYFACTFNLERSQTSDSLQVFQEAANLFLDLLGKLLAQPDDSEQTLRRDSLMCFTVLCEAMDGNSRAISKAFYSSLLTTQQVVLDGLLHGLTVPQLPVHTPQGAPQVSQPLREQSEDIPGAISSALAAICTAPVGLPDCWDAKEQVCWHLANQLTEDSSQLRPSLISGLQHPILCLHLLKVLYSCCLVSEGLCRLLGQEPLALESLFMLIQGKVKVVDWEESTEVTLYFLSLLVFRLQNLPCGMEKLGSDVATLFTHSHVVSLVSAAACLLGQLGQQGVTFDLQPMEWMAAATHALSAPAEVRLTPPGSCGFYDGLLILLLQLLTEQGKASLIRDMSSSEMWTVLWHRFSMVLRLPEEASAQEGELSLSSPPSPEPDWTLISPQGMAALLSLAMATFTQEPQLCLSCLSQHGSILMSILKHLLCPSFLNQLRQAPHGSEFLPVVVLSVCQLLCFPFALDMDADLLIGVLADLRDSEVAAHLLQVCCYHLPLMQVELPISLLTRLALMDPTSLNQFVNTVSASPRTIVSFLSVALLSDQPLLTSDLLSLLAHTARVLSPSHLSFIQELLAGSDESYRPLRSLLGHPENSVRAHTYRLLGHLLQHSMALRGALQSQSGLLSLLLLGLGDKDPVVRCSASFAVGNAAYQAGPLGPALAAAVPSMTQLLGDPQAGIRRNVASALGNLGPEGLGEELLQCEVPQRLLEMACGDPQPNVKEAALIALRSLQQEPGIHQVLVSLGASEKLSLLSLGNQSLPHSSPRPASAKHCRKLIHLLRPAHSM
Sequence of PAK1 (human) (Q13153 whole entry, looked up): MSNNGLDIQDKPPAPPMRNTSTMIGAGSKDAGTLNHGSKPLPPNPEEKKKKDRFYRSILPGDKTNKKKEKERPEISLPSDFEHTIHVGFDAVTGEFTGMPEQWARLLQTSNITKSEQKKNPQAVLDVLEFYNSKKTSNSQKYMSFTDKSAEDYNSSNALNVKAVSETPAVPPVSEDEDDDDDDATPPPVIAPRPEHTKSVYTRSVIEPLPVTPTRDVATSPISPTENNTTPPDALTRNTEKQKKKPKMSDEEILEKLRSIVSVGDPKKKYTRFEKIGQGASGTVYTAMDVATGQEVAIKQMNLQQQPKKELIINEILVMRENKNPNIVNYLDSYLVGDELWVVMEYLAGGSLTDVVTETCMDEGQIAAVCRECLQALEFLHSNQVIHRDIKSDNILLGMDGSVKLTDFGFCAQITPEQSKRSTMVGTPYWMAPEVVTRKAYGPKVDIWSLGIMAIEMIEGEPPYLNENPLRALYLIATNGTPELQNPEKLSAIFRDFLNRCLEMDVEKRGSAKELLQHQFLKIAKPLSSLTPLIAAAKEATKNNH
Sequence of PRKD2 (human) (Q9BZL6 whole entry, looked up): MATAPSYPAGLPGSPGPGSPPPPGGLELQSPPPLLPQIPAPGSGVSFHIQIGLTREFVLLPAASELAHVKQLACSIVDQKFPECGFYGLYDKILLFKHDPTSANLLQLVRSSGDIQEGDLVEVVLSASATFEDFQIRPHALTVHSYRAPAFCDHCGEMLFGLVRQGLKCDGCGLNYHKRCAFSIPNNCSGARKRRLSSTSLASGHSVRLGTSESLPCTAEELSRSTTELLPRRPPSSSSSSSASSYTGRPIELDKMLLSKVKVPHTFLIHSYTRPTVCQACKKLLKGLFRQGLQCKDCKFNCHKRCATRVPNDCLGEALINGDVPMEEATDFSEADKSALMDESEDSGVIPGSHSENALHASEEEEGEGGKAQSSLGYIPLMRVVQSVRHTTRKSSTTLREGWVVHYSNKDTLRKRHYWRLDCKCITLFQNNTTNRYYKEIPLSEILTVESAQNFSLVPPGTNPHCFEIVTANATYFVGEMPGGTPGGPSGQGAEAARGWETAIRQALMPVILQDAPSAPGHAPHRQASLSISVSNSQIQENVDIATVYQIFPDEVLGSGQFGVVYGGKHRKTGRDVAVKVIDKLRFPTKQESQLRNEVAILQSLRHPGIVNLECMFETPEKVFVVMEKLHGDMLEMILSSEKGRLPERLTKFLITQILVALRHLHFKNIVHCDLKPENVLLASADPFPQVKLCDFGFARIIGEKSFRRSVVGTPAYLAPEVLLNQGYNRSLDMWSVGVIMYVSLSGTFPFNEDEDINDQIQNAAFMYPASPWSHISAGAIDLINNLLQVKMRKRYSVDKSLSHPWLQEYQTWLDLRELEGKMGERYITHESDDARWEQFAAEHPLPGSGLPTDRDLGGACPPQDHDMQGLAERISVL
Sequence of NUAK1 (human) (O60285 whole entry, looked up): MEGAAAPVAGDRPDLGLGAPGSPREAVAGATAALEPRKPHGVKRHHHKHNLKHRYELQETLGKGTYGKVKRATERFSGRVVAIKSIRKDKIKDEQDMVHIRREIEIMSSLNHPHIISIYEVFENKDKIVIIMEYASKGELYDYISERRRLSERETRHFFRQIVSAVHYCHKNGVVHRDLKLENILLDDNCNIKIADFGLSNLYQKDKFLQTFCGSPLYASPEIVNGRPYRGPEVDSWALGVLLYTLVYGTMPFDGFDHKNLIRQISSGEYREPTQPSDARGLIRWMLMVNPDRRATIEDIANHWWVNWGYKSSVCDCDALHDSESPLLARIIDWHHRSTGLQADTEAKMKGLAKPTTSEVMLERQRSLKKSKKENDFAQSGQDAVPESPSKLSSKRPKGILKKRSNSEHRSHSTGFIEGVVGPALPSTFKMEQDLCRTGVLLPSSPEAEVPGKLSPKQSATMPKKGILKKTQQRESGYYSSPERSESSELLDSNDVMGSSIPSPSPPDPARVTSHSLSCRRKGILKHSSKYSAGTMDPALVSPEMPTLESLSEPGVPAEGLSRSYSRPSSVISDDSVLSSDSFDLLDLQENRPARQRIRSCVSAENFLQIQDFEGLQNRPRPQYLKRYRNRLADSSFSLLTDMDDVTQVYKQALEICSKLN
Sequence of BMX (human) (P51813 whole entry, looked up): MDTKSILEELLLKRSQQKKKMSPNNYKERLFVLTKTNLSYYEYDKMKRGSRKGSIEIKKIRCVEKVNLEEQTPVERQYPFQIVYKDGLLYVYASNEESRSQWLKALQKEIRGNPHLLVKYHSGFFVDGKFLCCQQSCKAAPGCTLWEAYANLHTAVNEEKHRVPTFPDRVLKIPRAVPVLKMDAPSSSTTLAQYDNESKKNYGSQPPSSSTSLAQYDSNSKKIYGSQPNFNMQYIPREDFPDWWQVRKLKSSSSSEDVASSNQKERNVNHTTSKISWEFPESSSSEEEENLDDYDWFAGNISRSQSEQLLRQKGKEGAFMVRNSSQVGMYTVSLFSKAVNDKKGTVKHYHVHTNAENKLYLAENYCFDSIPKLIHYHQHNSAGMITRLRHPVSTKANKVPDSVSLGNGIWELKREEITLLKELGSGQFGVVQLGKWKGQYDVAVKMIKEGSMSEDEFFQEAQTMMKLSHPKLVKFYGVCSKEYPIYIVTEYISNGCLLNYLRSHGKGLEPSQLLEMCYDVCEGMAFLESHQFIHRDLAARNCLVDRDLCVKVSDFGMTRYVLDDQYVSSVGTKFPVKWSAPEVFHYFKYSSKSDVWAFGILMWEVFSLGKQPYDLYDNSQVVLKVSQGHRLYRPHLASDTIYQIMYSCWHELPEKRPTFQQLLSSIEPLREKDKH

kinase still bound, per cent of control [1]: 0.2% | kinase still bound, per cent of control [2]: 16% | kinase still bound, per cent of control [3]: 0.45% | kinase still bound, per cent of control [4]: 13% | kinase still bound, per cent of control [5]: 2.4% | kinase still bound, per cent of control [6]: 28% | kinase still bound, per cent of control [7]: 3.1% | kinase still bound, per cent of control [8]: 0.2% | kinase still bound, per cent of control [9]: 0.6% | kinase still bound, per cent of control [10]: 0.1% | kinase still bound, per cent of control [11]: 1.6% | kinase still bound, per cent of control [12]: 2.7% | kinase still bound, per cent of control [13]: 1.4% | kinase still bound, per cent of control [14]: 1.2% | kinase still bound, per cent of control [15]: 0.2% | kinase still bound, per cent of control [16]: 24% | kinase still bound, per cent of control [17]: 0.35% | kinase still bound, per cent of control [18]: 0% | kinase still bound, per cent of control [19]: 0% | kinase still bound, per cent of control [20]: 1%
SMILES: CCN1CCN(Cc2ccc(NC(=O)c3ccc(C)c(Oc4ccnc5[nH]ccc45)c3)cc2C(F)(F)F)CC1

SMILES: CCOc1cc(N2CCC(N3CCCCC3)CC2)ccc1Nc1nc(Nc2ccccc2S(=O)(=O)C(C)C)c2cn[nH]c2n1
kinase still bound, per cent of control [1]: 100% | kinase still bound, per cent of control [21]: 100% | kinase still bound, per cent of control [22]: 100% | kinase still bound, per cent of control [23]: 100% | kinase still bound, per cent of control [24]: 100% | kinase still bound, per cent of control [2]: 97% | kinase still bound, per cent of control [25]: 100% | kinase still bound, per cent of control [3]: 100% | kinase still bound, per cent of control [26]: 100% | kinase still bound, per cent of control [4]: 88% | kinase still bound, per cent of control [5]: 100% | kinase still bound, per cent of control [6]: 46% | kinase still bound, per cent of control [7]: 100% | kinase still bound, per cent of control [8]: 100% | kinase still bound, per cent of control [27]: 100% | kinase still bound, per cent of control [9]: 100% | kinase still bound, per cent of control [10]: 100% | kinase still bound, per cent of control [11]: 100% | kinase still bound, per cent of control [12]: 100% | kinase still bound, per cent of control [28]: 100% | kinase still bound, per cent of control [29]: 2.2% | kinase still bound, per cent of control [30]: 100% | kinase still bound, per cent of control [13]: 100% | kinase still bound, per cent of control [31]: 100% | kinase still bound, per cent of control [14]: 40% | kinase still bound, per cent of control [32]: 96% | kinase still bound, per cent of control [33]: 100% | kinase still bound, per cent of control [34]: 100% | kinase still bound, per cent of control [35]: 82% | kinase still bound, per cent of control [15]: 100% | kinase still bound, per cent of control [36]: 100% | kinase still bound, per cent of control [37]: 84% | kinase still bound, per cent of control [38]: 100% | kinase still bound, per cent of control [16]: 100% | kinase still bound, per cent of control [39]: 100% | kinase still bound, per cent of control [17]: 100% | kinase still bound, per cent of control [18]: 100% | kinase still bound, per cent of control [40]: 7.4% | kinase still bound, per cent of control [19]: 100% | kinase still bound, per cent of control [41]: 90% | kinase still bound, per cent of control [20]: 100% | kinase still bound, per cent of control [42]: 100%

kinase still bound, per cent of control [1]: 0.05% | kinase still bound, per cent of control [22]: 28% | kinase still bound, per cent of control [23]: 0.15% | kinase still bound, per cent of control [24]: 40% | kinase still bound, per cent of control [2]: 0.25% | kinase still bound, per cent of control [25]: 40% | kinase still bound, per cent of control [3]: 0.1% | kinase still bound, per cent of control [26]: 40% | kinase still bound, per cent of control [4]: 17% | kinase still bound, per cent of control [6]: 0.1% | kinase still bound, per cent of control [7]: 27% | kinase still bound, per cent of control [8]: 5.8% | kinase still bound, per cent of control [27]: 40% | kinase still bound, per cent of control [9]: 0.85% | kinase still bound, per cent of control [10]: 0% | kinase still bound, per cent of control [11]: 2.8% | kinase still bound, per cent of control [12]: 7.4% | kinase still bound, per cent of control [28]: 1.8% | kinase still bound, per cent of control [29]: 0% | kinase still bound, per cent of control [30]: 20% | kinase still bound, per cent of control [13]: 0.95% | kinase still bound, per cent of control [31]: 0.25% | kinase still bound, per cent of control [14]: 0.95% | kinase still bound, per cent of control [32]: 0.05% | kinase still bound, per cent of control [33]: 0.75% | kinase still bound, per cent of control [34]: 11% | kinase still bound, per cent of control [35]: 24% | kinase still bound, per cent of control [15]: 0.35% | kinase still bound, per cent of control [36]: 3.6% | kinase still bound, per cent of control [37]: 40% | kinase still bound, per cent of control [38]: 3.2% | kinase still bound, per cent of control [16]: 40% | kinase still bound, per cent of control [39]: 0% | kinase still bound, per cent of control [17]: 40% | kinase still bound, per cent of control [40]: 6.2% | kinase still bound, per cent of control [19]: 5.4% | kinase still bound, per cent of control [41]: 4.8% | kinase still bound, per cent of control [42]: 0.15%
SMILES: COc1cc(N2CCC(N3CCN(C)CC3)CC2)ccc1Nc1ncc(Cl)c(Nc2ccccc2S(=O)(=O)C(C)C)n1
kinase still bound, per cent of control [21]: 0.25%

SMILES: CCN1CCN(Cc2ccc(NC(=O)c3ccc(C)c(/C=C/c4cnc(Nc5cc(N6CCNCC6)nc(C)n5)cn4)c3)cc2C(F)(F)F)CC1
kinase still bound, per cent of control [1]: 26% | kinase still bound, per cent of control [21]: 100% | kinase still bound, per cent of control [22]: 100% | kinase still bound, per cent of control [23]: 10% | kinase still bound, per cent of control [24]: 23% | kinase still bound, per cent of control [2]: 23% | kinase still bound, per cent of control [25]: 100% | kinase still bound, per cent of control [3]: 0.1% | kinase still bound, per cent of control [26]: 76% | kinase still bound, per cent of control [4]: 36% | kinase still bound, per cent of control [5]: 12% | kinase still bound, per cent of control [6]: 95% | kinase still bound, per cent of control [7]: 5.4% | kinase still bound, per cent of control [8]: 0.1% | kinase still bound, per cent of control [27]: 79% | kinase still bound, per cent of control [9]: 2.8% | kinase still bound, per cent of control [10]: 1.6% | kinase still bound, per cent of control [11]: 27% | kinase still bound, per cent of control [12]: 3.7% | kinase still bound, per cent of control [28]: 100% | kinase still bound, per cent of control [29]: 86% | kinase still bound, per cent of control [30]: 10% | kinase still bound, per cent of control [13]: 10% | kinase still bound, per cent of control [31]: 100% | kinase still bound, per cent of control [14]: 0.2% | kinase still bound, per cent of control [32]: 76% | kinase still bound, per cent of control [33]: 98% | kinase still bound, per cent of control [34]: 26% | kinase still bound, per cent of control [35]: 30% | kinase still bound, per cent of control [15]: 5.2% | kinase still bound, per cent of control [36]: 35% | kinase still bound, per cent of control [37]: 100% | kinase still bound, per cent of control [38]: 100% | kinase still bound, per cent of control [16]: 0.95% | kinase still bound, per cent of control [39]: 78% | kinase still bound, per cent of control [17]: 78% | kinase still bound, per cent of control [18]: 0.15% | kinase still bound, per cent of control [40]: 43% | kinase still bound, per cent of control [19]: 0.1% | kinase still bound, per cent of control [41]: 87% | kinase still bound, per cent of control [20]: 0.15% | kinase still bound, per cent of control [42]: 87%
